Measurements from PubChem BioAssay (NCI).
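96-well plates; 48 h exposure; 5 concentrations. Endpoints by linear interpolation between flanking doses. Not reached: highest tested concentration assigned. TGI: total growth inhibition.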

What was measured:
Experiment in all cases: NCI tumour cell line growth inhibition, 48 h
IGROV1 ovarian = tested on: IGROV1 ovarian
SF-539 CNS = tested on: SF-539 CNS
OVCAR-4 ovarian = tested on: OVCAR-4 ovarian
CAKI-1 renal = tested on: CAKI-1 renal
A498 renal = tested on: A498 renal
HCC-2998 colon = tested on: HCC-2998 colon
UACC-257 melanoma = tested on: UACC-257 melanoma
NCI-H460 lung = tested on: NCI-H460 lung
SNB-19 CNS = tested on: SNB-19 CNS
HT29 colon = tested on: HT29 colon
SF-268 CNS = tested on: SF-268 CNS
SNB-75 CNS = tested on: SNB-75 CNS
786-0 renal = tested on: 786-0 renal
MALME-3M melanoma = tested on: MALME-3M melanoma
K-562 leukemia = tested on: K-562 leukemia
OVCAR-8 ovarian = tested on: OVCAR-8 ovarian
MOLT-4 leukemia = tested on: MOLT-4 leukemia
EKVX NSCLC = tested on: EKVX NSCLC
UO-31 renal = tested on: UO-31 renal
HCT-15 colon = tested on: HCT-15 colon
HOP-18 NSCLC = tested on: HOP-18 NSCLC
KM20L2 colon = tested on: KM20L2 colon
TK-10 renal = tested on: TK-10 renal
SN12C renal = tested on: SN12C renal
M14 melanoma = tested on: M14 melanoma
UACC-62 melanoma = tested on: UACC-62 melanoma
HOP-92 NSCLC = tested on: HOP-92 NSCLC
SNB-78 CNS = tested on: SNB-78 CNS
KM12 colon = tested on: KM12 colon
OVCAR-3 ovarian = tested on: OVCAR-3 ovarian
CCRF-CEM leukemia = tested on: CCRF-CEM leukemia
NCI-H23 lung = tested on: NCI-H23 lung
SK-MEL-5 melanoma = tested on: SK-MEL-5 melanoma
LXFL 529 NSCLC = tested on: LXFL 529 NSCLC
M19-MEL melanoma = tested on: M19-MEL melanoma
XF 498 CNS = tested on: XF 498 CNS
LOX IMVI melanoma = tested on: LOX IMVI melanoma
SR leukemia = tested on: SR leukemia
DMS 114 small cell lung = tested on: DMS 114 small cell lung
SK-MEL-2 melanoma = tested on: SK-MEL-2 melanoma
ACHN renal = tested on: ACHN renal
HCT-116 colon = tested on: HCT-116 colon
HL-60(TB) leukemia = tested on: HL-60(TB) leukemia
HOP-62 NSCLC = tested on: HOP-62 NSCLC
A549 NSCLC = tested on: A549 NSCLC
SK-MEL-28 melanoma = tested on: SK-MEL-28 melanoma
DLD-1 colon = tested on: DLD-1 colon
OVCAR-5 ovarian = tested on: OVCAR-5 ovarian
RXF 393 renal = tested on: RXF 393 renal
SW-620 colon = tested on: SW-620 colon
DMS 273 small cell lung = tested on: DMS 273 small cell lung
NCI-H226 lung = tested on: NCI-H226 lung
SF-295 CNS = tested on: SF-295 CNS
RPMI-8226 leukemia = tested on: RPMI-8226 leukemia

Measured: TGI

COc1ccc(/C=C2\CCC(CCN3CCOCC3)C2=O)cc1 (centres undefined)
> 100 µM: all assays above
